Results taken from patent US20180201592A1, “2-AMINO-1,3,4-THIADIAZINE AND 2-AMINO-1,3,4-OXADIAZINE BASED ANTIFUNGAL AGENTS” (F2G Limited, priority 2015, published 2018).

What was measured:
Conditions in all cases: banded MIC grade
[1] = tested on: A. fumigatus 210; assay: Minimum inhibitory concentration, YAG medium; format: cell-based, Aspergillus fumigatus
How it was run: (§1)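 Testing uses spores harvested after 5 days on Sabouraud agar, grown 24 hrs at 35° C in glucose/ammonium chloride/yeast extract (YAG) medium against twofold drug dilutions. Optical density at 485 nm defines MIC as >70% growth reduction compared with drug-free wells.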

[2] = tested on: Aspergillus flavus; assay: Minimum inhibitory concentration, YAG medium; format: cell-based
How it was run: (§2)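 MIC in mg/L, from OD485 growth read-out after 24 hrs at 35° C in YAG medium with Aspergillus spores. Doubling dilutions in water made from a 5 mg/mL DMSO stock.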

[3] = tested on: Aspergillus terreus; assay: Minimum inhibitory concentration, YAG medium; format: cell-based
How it was run: as §2

[4] = tested on: Aspergillus niger; assay: Minimum inhibitory concentration, YAG medium; format: cell-based
How it was run: as §2

[5] = tested on: A. terreus 49; assay: Minimum inhibitory concentration, YAG medium; format: cell-based, Aspergillus terreus
How it was run: as §2

[6] = tested on: A. fumigatus 210; assay: Minimum inhibitory concentration, RPMI medium; format: cell-based
Protocol: (§3) Between 1 and 5 mgs of compound were accurately weighed out into a sterile Eppendorf tube. The compound was dissolved in DMSO to give a solution containing 5 mg/mL. Tubes were stored at −20° C. until required.
(§4) On the day of testing thawed solutions were vortex mixed to ensure homogeneity. 30 μL of solution was removed and added to 570 μL of sterile water in a separate sterile Eppendorf. The thoroughly mixed solution was used to prepare a series of doubling dilutions in water, in a deep well plate. Thirteen replicate plates were prepared using a Minitrak by aspirating 20 μL from each well into eleven clear polystyrene 96 well plates.
(§5) Assays were also performed in RPMI medium (Roswell Park Memorial Media 1640). To perform MIC tests in this medium, dilutions of compounds are prepared in microtitre plates as described above. Fungal strains to be tested are grown and harvested in an identical manner to that described above, and each organism suspension was diluted in RPMI medium, typically containing 2% glucose and 0.135 M MOPS buffer (pH 7.0) to 0.5-2×10^4cfu/mL, rather than in YAG medium. 80 μL of an organism suspension was added to each well of the plate containing drug dilutions.
(§6) This produced MIC plates with a drug range 50-0.05 mg/L and organism inocula of 1-2×10^4 cfu/mL. All plates were incubated for 24-48 hrs at 35° C. Growth was assessed by monitoring the optical density at 485 nm for each well. The MIC of a compound is the lowest drug concentration that inhibits growth of an organism by >80% compared with a drug free control. The following organisms were tested: C. albicans, C. parapsilosis, C. tropicalis, C. glabrata, C. krusei, A. niger, A. fumigatus, A. terreus, A. flavus, A. terreus 49, and A. fumigatus 210.

[7] = tested on: A. fumigatus; assay: Minimum inhibitory concentration, RPMI medium; format: cell-based
Protocol: as §3, §4, §5, §6

[8] = tested on: Aspergillus fumigatus; assay: Minimum inhibitory concentration, YAG medium; format: cell-based
How it was run: as §1

[9] = tested on: C. tropicalis; assay: Minimum inhibitory concentration, RPMI medium; format: cell-based
How it was run: (§7)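 Growth was measured by OD at 485 nm after 24-48 hrs at 35° C in RPMI 1640 medium. Compound was serially diluted twofold in water, starting from a 5 mg/mL DMSO stock solution.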

[10] = tested on: C. glabrata; assay: Minimum inhibitory concentration, RPMI medium; format: cell-based
How it was run: as §7

[11] = tested on: C. albicans; assay: Minimum inhibitory concentration, RPMI medium; format: cell-based
How it was run: as §7

[12] = tested on: C. krusei; assay: Minimum inhibitory concentration, RPMI medium; format: cell-based
How it was run: as §7

[13] = tested on: A. terreus; assay: Minimum inhibitory concentration, RPMI medium; format: cell-based
How it was run: as §7

[14] = tested on: A. terreus 49; assay: Minimum inhibitory concentration, RPMI medium; format: cell-based
How it was run: as §7

[15] = tested on: C. parapsilosis; assay: Minimum inhibitory concentration, RPMI medium; format: cell-based
How it was run: as §7

[16] = tested on: A. flavus; assay: Minimum inhibitory concentration, RPMI medium; format: cell-based
How it was run: as §7

[17] = tested on: A. niger; assay: Minimum inhibitory concentration, RPMI medium; format: cell-based
How it was run: as §7

SMILES | MIC grade, A. FUMIGATUS 210, YAG media [1] | MIC grade, A. FLAVUS, YAG media [2] | MIC grade, A. TERREUS, YAG media [3] | MIC grade, A. NIGER, YAG media [4] | MIC grade, A. TERREUS 49, YAG media [5] | MIC grade, A. FUMIGATUS 210, RPMI media [6] | MIC grade, A. FUMIGATUS, RPMI media [7] | MIC grade, A. FUMIGATUS, YAG media [8] | MIC grade, C. TROPICALIS, RPMI media [9] | MIC grade, C. GLABRATA, RPMI media [10] | MIC grade, C. ALBICANS, RPMI media [11] | MIC grade, C. KRUSEI, RPMI media [12] | MIC grade, A. TERREUS, RPMI media [13] | MIC grade, A. TERREUS 49, RPMI media [14] | MIC grade, C. PARAPSILOSIS, RPMI media [15] | MIC grade, A. FLAVUS, RPMI media [16] | MIC grade, A. NIGER, RPMI media [17]
NC1=NN=C(CCCCOCCCc2ccc(F)cc2F)CS1 | 3 (3: 0.2-1 mg/L) | 4 (4: <0.2 mg/L) | 3 (3: 0.2-1 mg/L) | 3 (3: 0.2-1 mg/L) | 3 (3: 0.2-1 mg/L) | 1 (1: ≥20 mg/L) | 2 (2: 5-20 mg/L) | 3 (3: 0.2-1 mg/L) | 3 (3: 1-5 mg/L) | 2 (2: 5-20 mg/L) | 4 (4: <1 mg/L) | 4 (4: <1 mg/L) | 2 (2: 5-20 mg/L) | 2 (2: 5-20 mg/L) | 4 (4: <1 mg/L) | 3 (3: 1-5 mg/L) | 2 (2: 5-20 mg/L)
NC1=NN=C(CCCCOCc2ccc(Cl)cc2Cl)CS1 | 2 (2: 1-5 mg/L) | 2 (2: 1-5 mg/L) | 2 (2: 1-5 mg/L) | 3 (3: 0.2-1 mg/L) | 2 (2: 1-5 mg/L) | 1 (1: ≥20 mg/L) | 1 (1: ≥20 mg/L) | 2 (2: 1-5 mg/L) | 2 (2: 5-20 mg/L) | 1 (1: ≥20 mg/L) | 2 (2: 5-20 mg/L) | 2 (2: 5-20 mg/L) | 2 (2: 5-20 mg/L) | 2 (2: 5-20 mg/L) | 2 (2: 5-20 mg/L) | 2 (2: 5-20 mg/L) | 1 (1: ≥20 mg/L)
NC1=NN=C(CCCCOCc2cccc(CCc3ccccc3)c2)CS1 | 1 (1: ≥5 mg/L) | 2 (2: 1-5 mg/L) | 2 (2: 1-5 mg/L) | 2 (2: 1-5 mg/L) | 2 (2: 1-5 mg/L) | 1 (1: ≥20 mg/L) | 1 (1: ≥20 mg/L) | 2 (2: 1-5 mg/L) | 2 (2: 5-20 mg/L) | 1 (1: ≥20 mg/L) | 2 (2: 5-20 mg/L) | 2 (2: 5-20 mg/L) | 1 (1: ≥20 mg/L) | 1 (1: ≥20 mg/L) | 2 (2: 5-20 mg/L) | 2 (2: 5-20 mg/L) | 1 (1: ≥20 mg/L)
NC1=NN=C(CCCCOCc2cccc(C(F)(F)F)c2)CS1 | 3 (3: 0.2-1 mg/L) | 3 (3: 0.2-1 mg/L) | 2 (2: 1-5 mg/L) | 3 (3: 0.2-1 mg/L) | 2 (2: 1-5 mg/L) | 1 (1: ≥20 mg/L) | 2 (2: 5-20 mg/L) | 3 (3: 0.2-1 mg/L) | 2 (2: 5-20 mg/L) | 1 (1: ≥20 mg/L) | 3 (3: 1-5 mg/L) | 2 (2: 5-20 mg/L) | 2 (2: 5-20 mg/L) | 2 (2: 5-20 mg/L) | 2 (2: 5-20 mg/L) | 2 (2: 5-20 mg/L) | 2 (2: 5-20 mg/L)
NC1=NN=C(CCCCOCc2cccc(Oc3ccccc3)c2)CS1 | 1 (1: ≥5 mg/L) | 2 (2: 1-5 mg/L) | 1 (1: ≥5 mg/L) | 2 (2: 1-5 mg/L) | 1 (1: ≥5 mg/L) | 1 (1: ≥20 mg/L) | 1 (1: ≥20 mg/L) | 1 (1: ≥5 mg/L) | 3 (3: 1-5 mg/L) | 1 (1: ≥20 mg/L) | 3 (3: 1-5 mg/L) | 3 (3: 1-5 mg/L) | 1 (1: ≥20 mg/L) | 1 (1: ≥20 mg/L) | 3 (3: 1-5 mg/L) | 1 (1: ≥20 mg/L) | 1 (1: ≥20 mg/L)
NC1=NN=C(CCCCOCc2cccc(-c3ccccc3)c2)CS1 | 1 (1: ≥5 mg/L) | 2 (2: 1-5 mg/L) | 2 (2: 1-5 mg/L) | 2 (2: 1-5 mg/L) | 2 (2: 1-5 mg/L) | 1 (1: ≥20 mg/L) | 1 (1: ≥20 mg/L) | 1 (1: ≥5 mg/L) | 2 (2: 5-20 mg/L) | 1 (1: ≥20 mg/L) | 2 (2: 5-20 mg/L) | 2 (2: 5-20 mg/L) | 2 (2: 5-20 mg/L) | 1 (1: ≥20 mg/L) | 2 (2: 5-20 mg/L) | 2 (2: 5-20 mg/L) | 1 (1: ≥20 mg/L)
NC1=NN=C(CCCCOCc2cc(F)cc(F)c2)CS1 | 4 (4: <0.2 mg/L) | 4 (4: <0.2 mg/L) | 4 (4: <0.2 mg/L) | 4 (4: <0.2 mg/L) | 4 (4: <0.2 mg/L) | 2 (2: 5-20 mg/L) | 4 (4: <1 mg/L) | 4 (4: <0.2 mg/L) | 4 (4: <1 mg/L) | 3 (3: 1-5 mg/L) | 4 (4: <1 mg/L) | 4 (4: <1 mg/L) | 3 (3: 1-5 mg/L) | 3 (3: 1-5 mg/L) | 4 (4: <1 mg/L) | 3 (3: 1-5 mg/L) | 3 (3: 1-5 mg/L)
NC1=NN=C(CCCCOCc2ccc(Cl)c(F)c2)CS1 | 4 (4: <0.2 mg/L) | 4 (4: <0.2 mg/L) | 4 (4: <0.2 mg/L) | 4 (4: <0.2 mg/L) | 4 (4: <0.2 mg/L) | 2 (2: 5-20 mg/L) | 4 (4: <1 mg/L) | 4 (4: <0.2 mg/L) | 4 (4: <1 mg/L) | 4 (4: <1 mg/L) | 4 (4: <1 mg/L) | 4 (4: <1 mg/L) | 3 (3: 1-5 mg/L) | 3 (3: 1-5 mg/L) | 4 (4: <1 mg/L) | 4 (4: <1 mg/L) | 4 (4: <1 mg/L)
